Measured values from ChEMBL document CHEMBL5291721, “A preclinical secondary pharmacology resource illuminates target-adverse drug reaction associations of marketed drugs” (Nat Commun, 2023).

Experiments:
Histamine H3 receptor = Histamine H3 receptor (Homo sapiens, UniProt Q9Y5N1)
[1] = target: T1, Equilibrative nucleoside transporter 1 (Homo sapiens, UniProt Q99808)
T1 sequence (Q99808 whole entry): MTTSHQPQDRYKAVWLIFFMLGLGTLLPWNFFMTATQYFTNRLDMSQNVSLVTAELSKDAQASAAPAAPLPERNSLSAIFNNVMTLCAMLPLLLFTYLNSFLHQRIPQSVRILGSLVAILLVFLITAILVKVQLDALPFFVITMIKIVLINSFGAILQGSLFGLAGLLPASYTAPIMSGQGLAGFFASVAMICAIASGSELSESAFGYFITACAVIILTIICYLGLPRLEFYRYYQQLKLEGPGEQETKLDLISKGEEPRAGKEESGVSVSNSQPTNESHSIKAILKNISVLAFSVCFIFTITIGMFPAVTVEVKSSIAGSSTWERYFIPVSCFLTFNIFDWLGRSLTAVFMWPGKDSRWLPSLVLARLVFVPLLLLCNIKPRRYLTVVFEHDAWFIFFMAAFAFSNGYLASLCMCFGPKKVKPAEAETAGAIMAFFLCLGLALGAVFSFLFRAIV

Thromboxane A2 receptor = target: T2, Thromboxane A2 receptor (Homo sapiens, UniProt P21731)
T2 sequence (P21731 whole entry): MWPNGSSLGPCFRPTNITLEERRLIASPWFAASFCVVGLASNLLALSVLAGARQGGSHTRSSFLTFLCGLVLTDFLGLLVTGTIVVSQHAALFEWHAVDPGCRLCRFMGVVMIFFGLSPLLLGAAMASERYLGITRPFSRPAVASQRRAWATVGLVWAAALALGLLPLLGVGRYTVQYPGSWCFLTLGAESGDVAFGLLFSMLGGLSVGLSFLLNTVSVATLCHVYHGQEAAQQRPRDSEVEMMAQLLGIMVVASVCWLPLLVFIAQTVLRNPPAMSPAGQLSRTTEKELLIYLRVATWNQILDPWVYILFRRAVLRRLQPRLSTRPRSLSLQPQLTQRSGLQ

B2 bradykinin receptor = target: T3, B2 bradykinin receptor (Homo sapiens, UniProt P30411)
T3 sequence (P30411 whole entry): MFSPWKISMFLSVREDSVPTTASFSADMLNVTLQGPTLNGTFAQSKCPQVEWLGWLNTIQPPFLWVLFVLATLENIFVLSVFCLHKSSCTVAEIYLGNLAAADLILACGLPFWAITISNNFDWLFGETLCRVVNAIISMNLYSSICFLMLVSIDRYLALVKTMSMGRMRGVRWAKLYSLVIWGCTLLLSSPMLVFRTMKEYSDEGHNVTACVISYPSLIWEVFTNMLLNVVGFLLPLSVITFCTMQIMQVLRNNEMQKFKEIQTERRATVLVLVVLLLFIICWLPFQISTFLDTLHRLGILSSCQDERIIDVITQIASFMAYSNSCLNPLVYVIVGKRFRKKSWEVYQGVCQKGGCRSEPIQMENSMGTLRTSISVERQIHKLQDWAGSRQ

[2] = target: T4, Alpha-2A adrenergic receptor (Homo sapiens, UniProt P08913); assay type: functional, cell-based
T4 sequence (P08913 whole entry): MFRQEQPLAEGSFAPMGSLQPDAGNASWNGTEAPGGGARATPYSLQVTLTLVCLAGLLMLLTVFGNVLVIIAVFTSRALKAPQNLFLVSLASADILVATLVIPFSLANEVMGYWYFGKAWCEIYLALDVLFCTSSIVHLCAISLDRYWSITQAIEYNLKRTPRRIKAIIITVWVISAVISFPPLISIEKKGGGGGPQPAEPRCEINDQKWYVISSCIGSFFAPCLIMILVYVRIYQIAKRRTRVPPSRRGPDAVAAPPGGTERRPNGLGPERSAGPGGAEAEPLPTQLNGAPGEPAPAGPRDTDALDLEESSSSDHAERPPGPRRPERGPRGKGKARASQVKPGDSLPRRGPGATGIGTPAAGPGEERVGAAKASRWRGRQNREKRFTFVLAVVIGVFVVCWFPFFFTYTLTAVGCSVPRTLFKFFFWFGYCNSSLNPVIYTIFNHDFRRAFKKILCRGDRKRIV

[3] = target: T5, Amine oxidase [flavin-containing] A (Homo sapiens, UniProt P21397); assay type: functional
T5 sequence (P21397 whole entry): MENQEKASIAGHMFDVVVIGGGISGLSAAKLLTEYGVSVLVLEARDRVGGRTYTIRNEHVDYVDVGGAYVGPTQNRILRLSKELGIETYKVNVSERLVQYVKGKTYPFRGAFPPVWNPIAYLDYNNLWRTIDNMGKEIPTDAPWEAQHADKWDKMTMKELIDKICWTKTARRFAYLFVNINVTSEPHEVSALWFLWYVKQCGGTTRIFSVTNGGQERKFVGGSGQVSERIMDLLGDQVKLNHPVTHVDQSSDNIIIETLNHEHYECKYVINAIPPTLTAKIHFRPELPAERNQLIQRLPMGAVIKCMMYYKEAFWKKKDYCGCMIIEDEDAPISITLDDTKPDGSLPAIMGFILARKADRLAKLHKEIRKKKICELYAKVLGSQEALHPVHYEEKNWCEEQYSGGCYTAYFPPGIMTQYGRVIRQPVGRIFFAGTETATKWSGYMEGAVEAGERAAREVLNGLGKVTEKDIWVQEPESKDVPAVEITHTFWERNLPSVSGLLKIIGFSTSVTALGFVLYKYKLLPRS

Histamine H2 receptor = Histamine H2 receptor (Homo sapiens, UniProt P25021); assay type: functional, cell-based
Histamine H2 receptor, sequence (P25021 whole entry): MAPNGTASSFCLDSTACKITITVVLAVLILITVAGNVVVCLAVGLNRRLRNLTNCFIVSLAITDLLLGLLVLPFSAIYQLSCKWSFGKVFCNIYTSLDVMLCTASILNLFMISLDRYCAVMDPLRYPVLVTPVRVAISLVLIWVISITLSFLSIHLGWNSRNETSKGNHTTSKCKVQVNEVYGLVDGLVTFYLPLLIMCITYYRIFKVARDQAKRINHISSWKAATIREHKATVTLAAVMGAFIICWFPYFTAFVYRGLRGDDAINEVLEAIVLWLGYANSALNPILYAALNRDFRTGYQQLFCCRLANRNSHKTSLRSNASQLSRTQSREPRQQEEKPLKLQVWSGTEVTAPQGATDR

[4] = target: T6, 5-hydroxytryptamine receptor 1A (Homo sapiens, UniProt P08908); assay type: functional, cell-based
T6 sequence (P08908 whole entry): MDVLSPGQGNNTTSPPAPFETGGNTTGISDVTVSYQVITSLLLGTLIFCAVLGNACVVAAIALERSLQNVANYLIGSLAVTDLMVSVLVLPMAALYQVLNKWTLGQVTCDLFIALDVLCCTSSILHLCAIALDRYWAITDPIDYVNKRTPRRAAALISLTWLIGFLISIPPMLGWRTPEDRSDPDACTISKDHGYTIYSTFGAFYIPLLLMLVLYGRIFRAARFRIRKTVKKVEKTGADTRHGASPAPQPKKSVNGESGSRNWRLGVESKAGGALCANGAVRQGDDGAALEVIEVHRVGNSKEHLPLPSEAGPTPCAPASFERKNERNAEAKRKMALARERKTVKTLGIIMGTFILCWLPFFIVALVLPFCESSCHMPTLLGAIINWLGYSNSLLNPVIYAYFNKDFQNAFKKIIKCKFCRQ

[5] = target: T6, 5-hydroxytryptamine receptor 1A; assay type: functional, cell-based; remark: listed apart in the source
Cannabinoid receptor 1 = Cannabinoid receptor 1 (Homo sapiens, UniProt P21554); assay type: functional, cell-based
Cannabinoid receptor 1, sequence (P21554 whole entry): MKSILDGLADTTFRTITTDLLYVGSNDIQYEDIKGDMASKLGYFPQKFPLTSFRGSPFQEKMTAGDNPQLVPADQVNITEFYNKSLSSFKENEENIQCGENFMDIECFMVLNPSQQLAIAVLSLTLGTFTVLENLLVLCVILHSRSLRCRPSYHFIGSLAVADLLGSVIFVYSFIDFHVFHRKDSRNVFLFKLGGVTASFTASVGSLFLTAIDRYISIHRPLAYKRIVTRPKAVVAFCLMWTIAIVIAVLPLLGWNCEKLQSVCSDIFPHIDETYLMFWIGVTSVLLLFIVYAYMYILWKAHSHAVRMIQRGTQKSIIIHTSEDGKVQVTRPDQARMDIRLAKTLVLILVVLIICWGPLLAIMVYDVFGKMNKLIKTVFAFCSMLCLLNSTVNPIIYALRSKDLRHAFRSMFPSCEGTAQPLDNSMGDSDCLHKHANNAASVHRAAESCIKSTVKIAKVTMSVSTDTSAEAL
Note: assay procedure not described here.

Histamine H3 receptor, sequence (Q9Y5N1 whole entry): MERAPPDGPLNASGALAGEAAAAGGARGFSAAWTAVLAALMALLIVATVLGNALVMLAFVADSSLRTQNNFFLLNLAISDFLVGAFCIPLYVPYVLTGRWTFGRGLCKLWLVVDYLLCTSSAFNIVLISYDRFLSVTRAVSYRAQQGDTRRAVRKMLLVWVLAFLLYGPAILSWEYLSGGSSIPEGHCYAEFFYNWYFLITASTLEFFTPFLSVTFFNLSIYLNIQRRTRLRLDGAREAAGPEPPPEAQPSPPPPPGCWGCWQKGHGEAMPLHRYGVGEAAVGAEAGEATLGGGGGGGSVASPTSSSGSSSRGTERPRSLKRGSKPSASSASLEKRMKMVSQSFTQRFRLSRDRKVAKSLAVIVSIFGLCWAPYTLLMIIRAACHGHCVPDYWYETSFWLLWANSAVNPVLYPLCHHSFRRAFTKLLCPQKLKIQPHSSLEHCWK

Row | Structure (SMILES) | AC50 (Histamine H3 receptor) | AC50 [1] | AC50 (Thromboxane A2 receptor) | AC50 (B2 bradykinin receptor) | AC50 [2] | AC50 [3] | AC50 (Histamine H2 receptor) | AC50 [4] | AC50 [5] | AC50 (Cannabinoid receptor 1)
1 | CNC(C)CCC=C(C)C (stereo not drawn) [ISOMETHEPTENE] | > 30 µM | > 30 µM | > 30 µM | > 30 µM |  |  |  |  |  | 
2 | CC(C)(C)c1cc(C(C)(C)C)c(NC(=O)c2c[nH]c3ccccc3c2=O)cc1O [IVACAFTOR] | > 10 µM | > 30 µM | 22 µM | > 30 µM | > 10 µM | > 10 µM | > 10 µM |  |  | 
3 | O=C(O)[C@H](CC(=O)N1C[C@H]2CCCC[C@H]2C1)Cc1ccccc1 [MITIGLINIDE] |  | > 10 µM | > 10 µM | > 10 µM | > 10 µM | > 10 µM | > 10 µM | > 10 µM | > 10 µM | 
4 | N#Cc1ccc([C@H]2CCc3cncn32)c(F)c1 [OSILODROSTAT] | > 10 µM | > 10 µM | > 10 µM |  |  |  |  |  |  | 
5 | COc1ccc2c3c1O[C@H]1C(=O)CC[C@@]4(O)[C@@H](C2)N(C)CC[C@]314 [OXYCODONE] | > 30 µM | > 30 µM | > 30 µM | > 30 µM | > 30 µM | > 30 µM | > 30 µM |  | > 30 µM | > 30 µM
6 | CC[C@@H]1C(=O)OC[C@@H]1Cc1cncn1C [PILOCARPINE] | > 10 µM | > 30 µM | > 30 µM | > 30 µM | > 10 µM | > 10 µM | > 10 µM |  | > 30 µM | > 30 µM
7 | O=C(O)C[C@H](O)C[C@H](O)/C=C/c1c(C2CC2)nc2ccccc2c1-c1ccc(F)cc1 [PITAVASTATIN] |  | > 10 µM | > 10 µM | > 10 µM | > 10 µM | > 30 µM | > 10 µM | > 10 µM | > 10 µM | 
8 | CN1CCC(=C2c3ccccc3CCc3sccc32)CC1 [PIZOTYLINE] | > 10 µM | > 30 µM | > 30 µM | > 30 µM | 3.97 µM | > 10 µM | > 10 µM |  | 3.56 µM | > 30 µM
9 | C=CCC1(C(C)CC)C(=O)NC(=O)NC1=O (stereo not drawn) [TALBUTAL] | > 10 µM | > 10 µM | > 10 µM | > 10 µM | > 10 µM | > 10 µM | > 10 µM | > 10 µM | > 10 µM | 
10 | CN1CCN(CC/C=C2/c3ccccc3Sc3ccc(S(=O)(=O)N(C)C)cc32)CC1 [THIOTHIXENE] |  | > 30 µM | > 30 µM | > 30 µM | 5.9 µM | > 10 µM | > 10 µM |  |  | > 30 µM
